Measured values from ChEMBL document CHEMBL1201862, “PubChem BioAssay data set” (2004).
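Values below derive from 48-hour exposures of cells grown in 96-well plates, with endpoints linearly interpolated between the two concentrations bracketing the appropriate inhibition level. GI50 = concentration required for 50% inhibition of growth.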 Activity calls are given as the source filed them. Rule as the data show it: active = GI50 up to about 1.1 µM and inactive = higher.

Experiments:
Assay in all cases: NCI-60 cell line screen, 48 h
ACHN = test system: ACHN
CCRF-CEM = test system: CCRF-CEM
DU-145 = test system: DU-145
HCC 2998 = test system: HCC 2998
HL-60 = test system: HL-60
IGROV-1 = test system: IGROV-1
K562 = test system: K562
LOX IMVI = test system: LOX IMVI
MDA-MB-231 = test system: MDA-MB-231
MDA-MB-435 = test system: MDA-MB-435
Malme-3M = test system: Malme-3M
NCI-H23 = test system: NCI-H23
SF-268 = test system: SF-268
SK-MEL-2 = test system: SK-MEL-2
SN12C = test system: SN12C
SNB-19 = test system: SNB-19
SNB-75 = test system: SNB-75
SW-620 = test system: SW-620
U-251 = test system: U-251
UO-31 = test system: UO-31

Compound | GI50 (ACHN) | GI50 (CCRF-CEM) | GI50 (DU-145) | GI50 (HCC 2998) | GI50 (HL-60) | GI50 (IGROV-1) | GI50 (K562) | GI50 (LOX IMVI) | GI50 (MDA-MB-231) | GI50 (MDA-MB-435) | GI50 (Malme-3M) | GI50 (NCI-H23) | GI50 (SF-268) | GI50 (SK-MEL-2) | GI50 (SN12C) | GI50 (SNB-19) | GI50 (SNB-75) | GI50 (SW-620) | GI50 (U-251) | GI50 (UO-31)
CCOC(=O)C1C(C(C)C)C2(C#N)C(=N)OC1(C)C2(C#N)C#N (stereo not given) | > 100 µM (inactive) | 47 µM (inactive) | > 100 µM (inactive) | > 100 µM (inactive) | 30 µM (inactive) | 88.3 µM (inactive) | 30.8 µM (inactive) | 43.3 µM (inactive) | > 100 µM (inactive) | 35.3 µM (inactive) | 40.8 µM (inactive) | 54.5 µM (inactive) | > 100 µM (inactive) | 58.9 µM (inactive) | 65.8 µM (inactive) | > 100 µM (inactive) | 13.3 µM (inactive) | 62.1 µM (inactive) | 82.4 µM (inactive) | > 100 µM (inactive)
O=C(OC1OC2COC(=O)c3cc(O)c(O)c(O)c3-c3c(cc(O)c(O)c3O)C(=O)OC3C2OC(=O)[C@@]24CC(=O)[C@@](O)(OC25C(=O)O[C@H]2[C@@H](O)CO[C@@]25O)C2(O)Oc5c(O)c(O)cc(c5C24)C(=O)OC13)c1cc(O)c(O)c(O)c1 (stereo not given in full) | 32.1 µM (inactive) | 26.7 µM (inactive) | 44.7 µM (inactive) | 28 µM (inactive) | 21.2 µM (inactive) | 75.9 µM (inactive) | 30.1 µM (inactive) | 12.6 µM (inactive) | 0.857 µM (active) | 17.2 µM (inactive) | > 100 µM (inactive) | 25.7 µM (inactive) | 58.6 µM (inactive) | > 100 µM (inactive) | 56 µM (inactive) | > 100 µM (inactive) | 34 µM (inactive) | 41.2 µM (inactive) | 39.6 µM (inactive) | 34.8 µM (inactive)
CN1CCC/C1=C1/C(=O)N(c2ccccc2)N=C1c1ccc[nH]1 | > 100 µM (inactive) | > 100 µM (inactive) | > 100 µM (inactive) | > 100 µM (inactive) | > 100 µM (inactive) | > 100 µM (inactive) | > 100 µM (inactive) | > 100 µM (inactive) | > 100 µM (inactive) | > 100 µM (inactive) | > 100 µM (inactive) | > 100 µM (inactive) | > 100 µM (inactive) | > 100 µM (inactive) | > 100 µM (inactive) | > 100 µM (inactive) | > 100 µM (inactive) | > 100 µM (inactive) | > 100 µM (inactive) | > 100 µM (inactive)
Cc1cc2c3ccccc3[nH]c2c2ccnc(C)c12 | 15.7 µM (inactive) | 2.29 µM (inactive) | 6.47 µM (inactive) | 2.87 µM (inactive) | 2.07 µM (inactive) | 15.2 µM (inactive) | 2.22 µM (inactive) | 2.15 µM (inactive) | 4.08 µM (inactive) | 1.65 µM (inactive) | 13.5 µM (inactive) | 12.5 µM (inactive) | 17.6 µM (inactive) | 8.63 µM (inactive) | 5.56 µM (inactive) | 18.6 µM (inactive) | 7.28 µM (inactive) | 2.47 µM (inactive) | 2.24 µM (inactive) | 14.2 µM (inactive)
CC(=O)C1=C(C)N(c2ccccc2)C2(O)C=CC(O)=C3C(=O)c4ccccc4C(=O)C312 (stereo not given) | 11.4 µM (inactive) | 3.73 µM (inactive) | 9.04 µM (inactive) | 10.6 µM (inactive) | 5.69 µM (inactive) | 8.91 µM (inactive) | 8.13 µM (inactive) | 4.94 µM (inactive) | 17.7 µM (inactive) | 2.45 µM (inactive) | 0.748 µM (active) | 15.8 µM (inactive) | 20.2 µM (inactive) | 15.3 µM (inactive) | 10.6 µM (inactive) | 17.1 µM (inactive) | 35.2 µM (inactive) | 7.64 µM (inactive) | 18 µM (inactive) | 16.3 µM (inactive)
CCOC(=O)C12CCC(c3c(C)cccc3C)(O1)C(C(=O)OC)=C2C(=O)OC (stereo not given) | > 8.49 µM (inactive) | 3.06 µM (inactive) | 4.24 µM (inactive) | 6.7 µM (inactive) | 1.82 µM (inactive) | 3.6 µM (inactive) | 3.62 µM (inactive) | 2.39 µM (inactive) | 5.07 µM (inactive) | 0.499 µM (active) | 1.05 µM (active) | 3.4 µM (inactive) | > 6.89 µM (inactive) | > 8.99 µM (inactive) | > 6.75 µM (inactive) | > 9.64 µM (inactive) | 3.64 µM (inactive) | 2.07 µM (inactive) | 3.76 µM (inactive) | > 10 µM (inactive)
Cc1ccc(Nc2cc(=O)[nH]c(=S)[nH]2)cc1 | > 100 µM (inactive) | > 100 µM (inactive) | > 100 µM (inactive) | > 100 µM (inactive) | > 100 µM (inactive) | > 100 µM (inactive) | > 100 µM (inactive) | > 100 µM (inactive) | > 100 µM (inactive) | > 100 µM (inactive) | > 100 µM (inactive) | > 100 µM (inactive) | > 100 µM (inactive) | > 100 µM (inactive) | > 100 µM (inactive) | > 100 µM (inactive) | > 100 µM (inactive) | > 100 µM (inactive) | > 100 µM (inactive) | > 100 µM (inactive)
